# In patent US20230085307A1, “PYRIDAZINONE COMPOUND AND HERBICIDE” (NISSAN CHEMICAL CORPORATION, priority 2019, published 2023):
# How the values were obtained:
# barnyard grass [1] = assay: Test Example 3: herbicidal effect by foliage application, Wagner pot (Table 18, symbol H); assay type: in vivo, barnyard grass (Echinochloa crus-galli); conditions: amount of applied herbicide 320 g/ha
# Summary of the method: (§1)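 Plants were sown in alluvial soil held under 0.1–0.5 cm standing water and grown 14 days in a greenhouse at 25–30 °C. An emulsifiable formulation, water-diluted to the set dose, was then sprayed onto the foliage, and effects were scored three weeks later using previously defined criteria.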
# Chinese sprangletop = assay: Test Example 3: herbicidal effect by foliage application, Wagner pot (Table 18, symbol D); assay type: in vivo, chinese sprangletop (Leptochloa chinensis); conditions: amount of applied herbicide 320 g/ha
# Summary of the method: as §1
# rice flat sedge = assay: Test Example 3: herbicidal effect by foliage application, Wagner pot (Table 18, symbol E); assay type: in vivo, rice flat sedge (Cyperus iria); conditions: amount of applied herbicide 320 g/ha
# Summary of the method: as §1
# southern crabgrass [2] = assay: Test Example 4: herbicidal effect by soil treatment (Table 19, symbol F); assay type: in vivo, southern crabgrass (Digitaria ciliaris); conditions: amount of applied herbicide 320 g/ha
# Summary of the method: (§2)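 Herbicidal effect was rated 3 weeks after treatment, using the scoring criteria of an earlier test. The compound, formulated as an emulsion and diluted in water to a set herbicide amount, had been sprayed uniformly on soil over freshly sown seeds. Growth took place in a greenhouse at 25° C. to 30° C.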
# green foxtail [3] = assay: Test Example 4: herbicidal effect by soil treatment (Table 19, symbol G); assay type: in vivo, green foxtail (Setaria viridis); conditions: amount of applied herbicide 320 g/ha
# Summary of the method: as §2
# barnyard grass [4] = assay: Test Example 4: herbicidal effect by soil treatment (Table 19, symbol H); assay type: in vivo, barnyard grass (Echinochloa crus-galli); conditions: amount of applied herbicide 320 g/ha
# Summary of the method: as §2
# wild oat [5] = assay: Test Example 4: herbicidal effect by soil treatment (Table 19, symbol I); assay type: in vivo, wild oat (Avena fatua); conditions: amount of applied herbicide 320 g/ha
# Summary of the method: as §2
# blackgrass [6] = assay: Test Example 4: herbicidal effect by soil treatment (Table 19, symbol J); assay type: in vivo, blackgrass (Alopecurus myosuroides); conditions: amount of applied herbicide 320 g/ha
# Summary of the method: as §2
# Italian ryegrass [7] = assay: Test Example 4: herbicidal effect by soil treatment (Table 19, symbol K); assay type: in vivo, Italian ryegrass (Lolium multiflorum); conditions: amount of applied herbicide 320 g/ha
# Summary of the method: as §2
# windgrass [8] = assay: Test Example 4: herbicidal effect by soil treatment (Table 19, symbol L); assay type: in vivo, windgrass (Apera spica-venti); conditions: amount of applied herbicide 320 g/ha
# Summary of the method: as §2
# velvetleaf [9] = assay: Test Example 4: herbicidal effect by soil treatment (Table 19, symbol M); assay type: in vivo, velvetleaf (Abutilon theophrasti); conditions: amount of applied herbicide 320 g/ha
# Summary of the method: as §2
# redroot pigweed [10] = assay: Test Example 4: herbicidal effect by soil treatment (Table 19, symbol N); assay type: in vivo, redroot pigweed (Amaranthus retroflexus); conditions: amount of applied herbicide 320 g/ha
# Summary of the method: as §2
# lambsquarters [11] = assay: Test Example 4: herbicidal effect by soil treatment (Table 19, symbol O); assay type: in vivo, lambsquarters (Chenopodium album); conditions: amount of applied herbicide 320 g/ha
# Summary of the method: as §2
# chickweed [12] = assay: Test Example 4: herbicidal effect by soil treatment (Table 19, symbol P); assay type: in vivo, common chickweed (Stellaria media); conditions: amount of applied herbicide 320 g/ha
# Summary of the method: as §2
# false cleavers [13] = assay: Test Example 4: herbicidal effect by soil treatment (Table 19, symbol Q); assay type: in vivo, false cleavers (Galium spurium); conditions: amount of applied herbicide 320 g/ha
# Summary of the method: as §2
# persian speedwell [14] = assay: Test Example 4: herbicidal effect by soil treatment (Table 19, symbol R); assay type: in vivo, Persian speedwell (Veronica persica); conditions: amount of applied herbicide 320 g/ha
# Summary of the method: as §2
# southern crabgrass [15] = assay: Test Example 5: herbicidal effect by foliage application, plastic box (Table 20, symbol F); assay type: in vivo, southern crabgrass (Digitaria ciliaris); conditions: foliage application, 320 g/ha
# Summary of the method: (§3)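 Foliar spray test: emulsion formulation diluted in water to a set application rate, sprayed onto 14-day-old plants raised in diluvial soil at 25° C to 30° C under glass. Both herbicidal effect and crop effect rated visually three weeks later.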
# green foxtail [16] = assay: Test Example 5: herbicidal effect by foliage application, plastic box (Table 20, symbol G); assay type: in vivo, green foxtail (Setaria viridis); conditions: foliage application, 320 g/ha
# Summary of the method: as §3
# barnyard grass [17] = assay: Test Example 5: herbicidal effect by foliage application, plastic box (Table 20, symbol H); assay type: in vivo, barnyard grass (Echinochloa crus-galli); conditions: foliage application, 320 g/ha
# Summary of the method: as §3
# wild oat [18] = assay: Test Example 5: herbicidal effect by foliage application, plastic box (Table 20, symbol I); assay type: in vivo, wild oat (Avena fatua); conditions: foliage application, 320 g/ha
# Summary of the method: as §3
# blackgrass [19] = assay: Test Example 5: herbicidal effect by foliage application, plastic box (Table 20, symbol J); assay type: in vivo, blackgrass (Alopecurus myosuroides); conditions: foliage application, 320 g/ha
# Summary of the method: as §3
# Italian ryegrass [20] = assay: Test Example 5: herbicidal effect by foliage application, plastic box (Table 20, symbol K); assay type: in vivo, Italian ryegrass (Lolium multiflorum); conditions: foliage application, 320 g/ha
# Summary of the method: as §3
# windgrass [21] = assay: Test Example 5: herbicidal effect by foliage application, plastic box (Table 20, symbol L); assay type: in vivo, windgrass (Apera spica-venti); conditions: foliage application, 320 g/ha
# Summary of the method: as §3
# velvetleaf [22] = assay: Test Example 5: herbicidal effect by foliage application, plastic box (Table 20, symbol M); assay type: in vivo, velvetleaf (Abutilon theophrasti); conditions: foliage application, 320 g/ha
# Summary of the method: as §3
# redroot pigweed [23] = assay: Test Example 5: herbicidal effect by foliage application, plastic box (Table 20, symbol N); assay type: in vivo, redroot pigweed (Amaranthus retroflexus); conditions: foliage application, 320 g/ha
# Summary of the method: as §3
# lambsquarters [24] = assay: Test Example 5: herbicidal effect by foliage application, plastic box (Table 20, symbol O); assay type: in vivo, lambsquarters (Chenopodium album); conditions: foliage application, 320 g/ha
# Summary of the method: as §3
# chickweed [25] = assay: Test Example 5: herbicidal effect by foliage application, plastic box (Table 20, symbol P); assay type: in vivo, common chickweed (Stellaria media); conditions: foliage application, 320 g/ha
# Summary of the method: as §3
# false cleavers [26] = assay: Test Example 5: herbicidal effect by foliage application, plastic box (Table 20, symbol Q); assay type: in vivo, false cleavers (Galium spurium); conditions: foliage application, 320 g/ha
# Summary of the method: as §3
# persian speedwell [27] = assay: Test Example 5: herbicidal effect by foliage application, plastic box (Table 20, symbol R); assay type: in vivo, Persian speedwell (Veronica persica); conditions: foliage application, 320 g/ha
# Summary of the method: as §3
# [28] = evaluated three weeks after application
compound,measurement,setting,value
COc1ccc(F)cc1-c1sc2ccc(C)cc2c1-c1c(O)c(C)nn(C)c1=O [2-150],herbicidal effect on H: barnyard grass,barnyard grass [1],4 (Herbicidal rate of 70% or more and less than 90%)
same,herbicidal effect on D: Chinese sprangletop,Chinese sprangletop,2 (Herbicidal rate of 20% or more and less than 40%)
same,herbicidal effect on E: rice flat sedge,rice flat sedge,5 (Herbicidal rate of 90% or more (almost completely withered))
same,"F: southern crabgrass, herbicidal effect rating",southern crabgrass [2],0 (Herbicidal rate of 5% or less (almost no effect))
same,"G: green foxtail, herbicidal effect rating",green foxtail [3],0 (Herbicidal rate of 5% or less (almost no effect))
same,"H: barnyard grass, herbicidal effect rating",barnyard grass [4],0 (Herbicidal rate of 5% or less (almost no effect))
same,"I: wild oat, herbicidal effect rating",wild oat [5],0 (Herbicidal rate of 5% or less (almost no effect))
same,"J: blackgrass, herbicidal effect rating",blackgrass [6],0 (Herbicidal rate of 5% or less (almost no effect))
same,"K: Italian ryegrass, herbicidal effect rating",Italian ryegrass [7],0 (Herbicidal rate of 5% or less (almost no effect))
same,"L: windgrass, herbicidal effect rating",windgrass [8],0 (Herbicidal rate of 5% or less (almost no effect))
same,"M: velvetleaf, herbicidal effect rating",velvetleaf [9],1 (Herbicidal rate of 5% or more and less than 20%)
same,"N: redroot pigweed, herbicidal effect rating",redroot pigweed [10],3 (Herbicidal rate of 40% or more and less than 70%)
same,"O: lambsquarters, herbicidal effect rating",lambsquarters [11],2 (Herbicidal rate of 20% or more and less than 40%)
same,"P: chickweed, herbicidal effect rating",chickweed [12],4 (Herbicidal rate of 70% or more and less than 90%)
same,"Q: false cleavers, herbicidal effect rating",false cleavers [13],0 (Herbicidal rate of 5% or less (almost no effect))
same,"R: persian speedwell, herbicidal effect rating",persian speedwell [14],5 (Herbicidal rate of 90% or more (almost completely withered))
same,herbicidal effect on F: southern crabgrass (criteria 0-5),southern crabgrass [15]; [28],0 (Herbicidal rate of 5% or less (almost no effect))
same,herbicidal effect on G: green foxtail (criteria 0-5),green foxtail [16]; [28],0 (Herbicidal rate of 5% or less (almost no effect))
same,herbicidal effect on H: barnyard grass (criteria 0-5),barnyard grass [17]; [28],0 (Herbicidal rate of 5% or less (almost no effect))
same,herbicidal effect on I: wild oat (criteria 0-5),wild oat [18]; [28],1 (Herbicidal rate of 5% or more and less than 20%)
same,herbicidal effect on J: blackgrass (criteria 0-5),blackgrass [19]; [28],4 (Herbicidal rate of 70% or more and less than 90%)
same,herbicidal effect on K: Italian ryegrass (criteria 0-5),Italian ryegrass [20]; [28],3 (Herbicidal rate of 40% or more and less than 70%)
same,herbicidal effect on L: windgrass (criteria 0-5),windgrass [21]; [28],3 (Herbicidal rate of 40% or more and less than 70%)
same,herbicidal effect on M: velvetleaf (criteria 0-5),velvetleaf [22]; [28],4 (Herbicidal rate of 70% or more and less than 90%)
same,herbicidal effect on N: redroot pigweed (criteria 0-5),redroot pigweed [23]; [28],5 (Herbicidal rate of 90% or more (almost completely withered))
same,herbicidal effect on O: lambsquarters (criteria 0-5),lambsquarters [24]; [28],3 (Herbicidal rate of 40% or more and less than 70%)
same,herbicidal effect on P: chickweed (criteria 0-5),chickweed [25]; [28],5 (Herbicidal rate of 90% or more (almost completely withered))
same,herbicidal effect on Q: false cleavers (criteria 0-5),false cleavers [26]; [28],4 (Herbicidal rate of 70% or more and less than 90%)
same,herbicidal effect on R: persian speedwell (criteria 0-5),persian speedwell [27]; [28],5 (Herbicidal rate of 90% or more (almost completely withered))
Cc1nn(C)c(=O)c(-c2c(-c3ccc(F)cc3)sc3cc(F)ccc23)c1O [3-001],herbicidal effect on H: barnyard grass,barnyard grass [1],5 (Herbicidal rate of 90% or more (almost completely withered))
same,herbicidal effect on D: Chinese sprangletop,Chinese sprangletop,5 (Herbicidal rate of 90% or more (almost completely withered))
same,herbicidal effect on E: rice flat sedge,rice flat sedge,5 (Herbicidal rate of 90% or more (almost completely withered))
same,"herbicidal effect, F: southern crabgrass",southern crabgrass [2],5 (Herbicidal rate of 90% or more (almost completely withered))
same,"herbicidal effect, G: green foxtail",green foxtail [3],4 (Herbicidal rate of 70% or more and less than 90%)
same,"herbicidal effect, H: barnyard grass",barnyard grass [4],4 (Herbicidal rate of 70% or more and less than 90%)
same,"herbicidal effect, I: wild oat",wild oat [5],4 (Herbicidal rate of 70% or more and less than 90%)
same,"herbicidal effect, J: blackgrass",blackgrass [6],3 (Herbicidal rate of 40% or more and less than 70%)
same,"herbicidal effect, K: Italian ryegrass",Italian ryegrass [7],5 (Herbicidal rate of 90% or more (almost completely withered))
same,"herbicidal effect, L: windgrass",windgrass [8],4 (Herbicidal rate of 70% or more and less than 90%)
same,"herbicidal effect, M: velvetleaf",velvetleaf [9],0 (Herbicidal rate of 5% or less (almost no effect))
same,"herbicidal effect, N: redroot pigweed",redroot pigweed [10],5 (Herbicidal rate of 90% or more (almost completely withered))
same,"herbicidal effect, O: lambsquarters",lambsquarters [11],5 (Herbicidal rate of 90% or more (almost completely withered))
same,"herbicidal effect, P: chickweed",chickweed [12],5 (Herbicidal rate of 90% or more (almost completely withered))
same,"herbicidal effect, Q: false cleavers",false cleavers [13],3 (Herbicidal rate of 40% or more and less than 70%)
same,"herbicidal effect, R: persian speedwell",persian speedwell [14],4 (Herbicidal rate of 70% or more and less than 90%)
same,"F: southern crabgrass, herbicidal effect grade",southern crabgrass [15]; three weeks after application,5 (Herbicidal rate of 90% or more (almost completely withered))
same,"G: green foxtail, herbicidal effect grade",green foxtail [16]; three weeks after application,5 (Herbicidal rate of 90% or more (almost completely withered))
same,"H: barnyard grass, herbicidal effect grade",barnyard grass [17]; three weeks after application,5 (Herbicidal rate of 90% or more (almost completely withered))
same,"I: wild oat, herbicidal effect grade",wild oat [18]; three weeks after application,5 (Herbicidal rate of 90% or more (almost completely withered))
same,"J: blackgrass, herbicidal effect grade",blackgrass [19]; three weeks after application,5 (Herbicidal rate of 90% or more (almost completely withered))
same,"K: Italian ryegrass, herbicidal effect grade",Italian ryegrass [20]; three weeks after application,5 (Herbicidal rate of 90% or more (almost completely withered))
same,"L: windgrass, herbicidal effect grade",windgrass [21]; three weeks after application,5 (Herbicidal rate of 90% or more (almost completely withered))
same,"M: velvetleaf, herbicidal effect grade",velvetleaf [22]; three weeks after application,5 (Herbicidal rate of 90% or more (almost completely withered))
same,"N: redroot pigweed, herbicidal effect grade",redroot pigweed [23]; three weeks after application,5 (Herbicidal rate of 90% or more (almost completely withered))
same,"O: lambsquarters, herbicidal effect grade",lambsquarters [24]; three weeks after application,5 (Herbicidal rate of 90% or more (almost completely withered))
same,"P: chickweed, herbicidal effect grade",chickweed [25]; three weeks after application,5 (Herbicidal rate of 90% or more (almost completely withered))
same,"Q: false cleavers, herbicidal effect grade",false cleavers [26]; three weeks after application,5 (Herbicidal rate of 90% or more (almost completely withered))
same,"R: persian speedwell, herbicidal effect grade",persian speedwell [27]; three weeks after application,5 (Herbicidal rate of 90% or more (almost completely withered))
